Laboratory results published in ChEMBL document CHEMBL6114969, “Ultra-short lipopeptides containing d-amino acid exhibiting excellent stability and antibacterial activity against gram-positive bacteria” (Eur J Med Chem, 2025).
≈ marks a conversion by molar mass, not a printed value. Calls of active or inactive are those of the source. The calls are words filed in the database; no cut-off is given here.

Columns and labels:
[1] = Stability in mouse serum assessed as half life measured upto 96 hrs by RP-HPLC analysis; assay type: ADME, cell-free
Staphylococcus aureus [2] = test: Antibacterial activity against drug-resistant Staphylococcus aureus ATCC 25923 incubated for 18 to 24 hrs; assay type: functional; settings: time 18-24 hrs
[3] = Toxicity in Balb/c mouse assessed as kidney pigmentation at 80 mg/kg, ip measured after 7 days; assay type: organism-based; settings: in vivo, 168 h, time 7 day
[4] = Toxicity in Balb/c mouse assessed as change in heart co-efficient at 20 to 80 mg/kg, ip measured after 7 days; assay type: organism-based; settings: in vivo, 168 h, dose 20-80 mg/kg, time 7 day
Staphylococcus aureus [5] = test: Antibacterial activity against methicillin-resistant Staphylococcus aureus ATCC 33591 infected in Balb/c mouse model of skin wound infection assessed as reduction in bacterial load in skin at 10 mg/kg, ip administered thrice at 1, 24 and 48 hrs post-infection measured after 72 hrs post-infection; assay type: functional, organism-based; settings: time 71.0 hrs
Staphylococcus aureus [6] = test: (§1) Antibacterial activity against methicillin-resistant Staphylococcus aureus ATCC 33591 infected in Balb/c mouse model of pneumonia infection assessed as reduction in IL-1beta activity in lung at 10 mg/kg, ip administered thrice at 4, 8 and 12 hrs post-infection measured after 24 hrs post-infection by IHC analysis; assay type: functional, organism-based; settings: time 20.0 hrs
Staphylococcus aureus [7] = test: Antibacterial activity against methicillin-resistant Staphylococcus aureus ATCC 33591 infected in Balb/c mouse model of acute systemic infection assessed as reduction in cell swelling in heart at 10 mg/kg, ip measured after 5 days by H and E staining based analysis; assay type: functional, organism-based; settings: time 5.0 day
[8] = Toxicity in Balb/c mouse assessed as change in lung co-efficient at 20 to 80 mg/kg, ip measured after 7 days; assay type: organism-based; settings: in vivo, 168 h, dose 20-80 mg/kg, time 7 day
Staphylococcus aureus [9] = test: Antibacterial activity against methicillin-resistant Staphylococcus aureus ATCC 33591 assessed as fold change in MIC incubated for 18 to 24 hrs in presence of NaCl by broth microdilution method; assay type: functional; settings: time 18-24 hrs
[10] = Toxicity in Balb/c mouse assessed as cell swelling in spleen at 80 mg/kg, ip measured after 7 days by H and E staining based analysis; assay type: organism-based; settings: in vivo, 168 h, time 7 day
Staphylococcus aureus [11] = test: Antibacterial activity against polymyxin B-resistant Staphylococcus aureus ATCC 25923 incubated for 18 to 24 hrs; assay type: functional; settings: time 18-24 hrs
Staphylococcus aureus [12] = test: Antibacterial activity against methicillin-resistant Staphylococcus aureus ATCC 33591 infected in Balb/c mouse model of acute systemic infection assessed as reduction in bacterial count in spleen at 10 mg/kg, ip measured after 5 days; assay type: functional, organism-based; settings: time 5.0 day
Staphylococcus aureus [13] = test: Antibacterial activity against drug-resistant methicillin-resistant Staphylococcus aureus ATCC 33591 incubated for 18 to 24 hrs; assay type: functional; settings: time 18-24 hrs
Staphylococcus aureus [14] = test: Induction of cell membrane damage in methicillin-resistant Staphylococcus aureus ATCC 33591 assessed as protein leakage at 2 to 8 times MIC measured upto 360 mins by absorbance based assay; assay type: functional, organism-based
Staphylococcus aureus [15] = test: Synergistic bactericidal activity against persistent methicillin-resistant Staphylococcus aureus ATCC 33591 incubated for 18 to 24 hrs in presence of ciprofloxacin by time-kill assay; assay type: functional, organism-based; settings: time 18-24 hrs
Staphylococcus aureus [16] = test: as §1, with “TNF-alpha” for “IL-1beta”; assay type: functional, organism-based; settings: time 20.0 hrs
Mus musculus = test: In vivo inhibition of inflammation in Balb/c mouse model of acute systemic infection infected with methicillin-resistant Staphylococcus aureus ATCC 33591 assessed as reduction in TNF-alpha activity at 10 mg/kg, ip measured after 5 days; assay type: functional, organism-based; settings: time 5.0 day
Staphylococcus aureus [17] = test: Induction of morphological changes in methicillin-resistant Staphylococcus aureus ATCC 33591 assessed as irregular atrophy at 2 times MIC incubated for 2 hrs by SEM analysis; assay type: functional, organism-based
Staphylococcus aureus [18] = test: Antibacterial activity against methicillin-resistant Staphylococcus aureus ATCC 33591 infected in Balb/c mouse model of acute systemic infection assessed as reduction in hemorrhage in lung at 10 mg/kg, ip measured after 5 days by H and E staining based analysis; assay type: functional, organism-based; settings: time 5.0 day
[19] = Toxicity in Balb/c mouse assessed as kidney atrophy at 80 mg/kg, ip measured after 7 days; assay type: organism-based; settings: in vivo, 168 h, time 7 day
Staphylococcus aureus [20] = test: Synergistic antibacterial activity against methicillin-resistant Staphylococcus aureus ATCC 33591 assessed as fractional inhibitory concentration index upto 2 times MIC incubated for 18 to 24 hrs in presence of ciprofloxacin by checkerboard assay; assay type: functional; settings: time 18-24 hrs
[21] = Toxicity in Balb/c mouse assessed as organ edema at 20 to 80 mg/kg, ip measured after 7 days; assay type: organism-based; settings: in vivo, 168 h, dose 20-80 mg/kg, time 7 day
Staphylococcus aureus [22] = test: Antibacterial activity against gentamicin-resistant methicillin-resistant Staphylococcus aureus ATCC 33591 incubated for 18 to 24 hrs; assay type: functional; settings: time 18-24 hrs
[23] = Toxicity in Balb/c mouse assessed as spleen pigmentation at 80 mg/kg, ip measured after 7 days; assay type: organism-based; settings: in vivo, 168 h, time 7 day
[24] = Toxicity in Balb/c mouse assessed as spleen atrophy at 80 mg/kg, ip measured after 7 days; assay type: organism-based; settings: in vivo, 168 h, time 7 day
[25] = Stability in mouse serum assessed as compound degradation measured upto 96 hrs by RP-HPLC analysis; assay type: ADME, cell-free; settings: read-out: Drug degradation
Staphylococcus aureus [26] = test: Synergistic bactericidal activity against persistent methicillin-resistant Staphylococcus aureus ATCC 33591 incubated for 18 to 24 hrs in presence of imipenem by time-kill assay; assay type: functional, organism-based; settings: time 18-24 hrs
Staphylococcus aureus [27] = test: Antibacterial activity against methicillin-resistant Staphylococcus aureus ATCC 33591 incubated for 18 to 24 hrs by broth microdilution method; assay type: functional; settings: time 18-24 hrs
Staphylococcus aureus [28] = test: Inhibition of imipenem-induced drug resistance in methicillin-resistant Staphylococcus aureus ATCC 33591 at sub-MIC measured upto 15 passages; assay type: functional, organism-based
Staphylococcus aureus [29] = test: Antibacterial activity against methicillin-resistant Staphylococcus aureus ATCC 33591 infected in Balb/c mouse model of acute systemic infection assessed as reduction in tubule contraction in kidney at 10 mg/kg, ip measured after 5 days by H and E staining based analysis; assay type: functional, organism-based; settings: time 5.0 day
Staphylococcus aureus [30] = test: Antibacterial activity against methicillin-resistant Staphylococcus aureus ATCC 33591 infected in Balb/c mouse model of acute systemic infection assessed as tissue damage repair at 10 mg/kg, ip measured after 5 days in presence of polymyxin B by H and E staining based analysis; assay type: functional, organism-based; settings: time 5.0 day
Staphylococcus aureus [31] = test: Antibacterial activity against methicillin-resistant Staphylococcus aureus ATCC 33591 infected in Balb/c mouse model of skin wound infection assessed as crusted back wound at 10 mg/kg, ip administered thrice at 1, 24 and 48 hrs post-infection measured after 9 days relative to control; assay type: functional; settings: time 9 day
Staphylococcus aureus [32] = test: Antibacterial activity against methicillin-resistant Staphylococcus aureus ATCC 33591 incubated for 18 to 24 hrs in presence of 1 mg/ml of pepsin by broth microdilution method; assay type: functional; settings: time 18-24 hrs
[33] = Toxicity in Balb/c mouse assessed as cell swelling in liver at 80 mg/kg, ip measured after 7 days by H and E staining based analysis; assay type: organism-based; settings: in vivo, 168 h, time 7 day
Staphylococcus aureus [34] = test: Induction of morphological changes in methicillin-resistant Staphylococcus aureus ATCC 33591 assessed as characteristic membrane rupture at 4 times MIC incubated for 2 hrs by SEM analysis; assay type: functional, organism-based
[35] = Toxicity in Balb/c mouse assessed as survival rate at 80 mg/kg, ip measured after 7 days; assay type: organism-based; settings: in vivo, time 7 day
Staphylococcus aureus [36] = test: Inhibition of imipenem-induced drug resistance in […] Staphylococcus aureus ATCC 33591 at sub-MIC measured upto 15 passages; assay type: functional, organism-based

SMILES: CCCCCCCCCCCC(=O)N[C@H](CCCNC(=N)N)C(=O)N[C@H](CCCNC(=N)N)C(=O)N[C@H](Cc1c[nH]c2ccccc12)C(=O)O
- half-life [1]: > 48 h
- MIC (Staphylococcus aureus [2]): 8 µM (≈ 5.59 µg/mL)
- Activity [3]: Toxic
- Activity [4]: Non-toxic
- Activity (Staphylococcus aureus [5]): Active
- Activity (Staphylococcus aureus [6]): Active
- Activity (Staphylococcus aureus [7]): Active
- Activity [8]: Non-toxic
- fold change (FC) (Staphylococcus aureus [9]): <3
- Activity [10]: Toxic
- MIC (Staphylococcus aureus [11]): 4 µM (≈ 2.8 µg/mL)
- Activity (Staphylococcus aureus [12]): Active
- MIC (Staphylococcus aureus [13]): 8 µM (≈ 5.59 µg/mL)
- Activity (Staphylococcus aureus [14]): Active
- Activity (Staphylococcus aureus [15]): Dose-dependent-effect
- Activity (Staphylococcus aureus [16]): Active
- inhibition (Mus musculus): Active
- Activity (Staphylococcus aureus [17]): Active
- Activity (Staphylococcus aureus [18]): Active
- Activity [19]: Toxic
- fractional inhibitory concentration index (FICI) (Staphylococcus aureus [20]): 0.75
- Activity [21]: Toxic
- MIC (Staphylococcus aureus [22]): 8 µM (≈ 5.59 µg/mL)
- Activity [23]: Toxic
- Activity [24]: Toxic
- metabolised at 96 h [25]: ~20%
- Activity (Staphylococcus aureus [26]): Dose-dependent-effect
- MIC (Staphylococcus aureus [27]): 4 µM (≈ 2.8 µg/mL)
- inhibition (Staphylococcus aureus [28]): Active
- Activity (Staphylococcus aureus [29]): Active
- Activity (Staphylococcus aureus [30]): Active; Compound In Combination Exerted Better Activity Than Polymyxin B Treatment Alone
- Activity (Staphylococcus aureus [31]): 100%
- MIC (Staphylococcus aureus [32]): 8 µM
- Activity [33]: Toxic
- Activity (Staphylococcus aureus [34]): Active
- survival at 168 h [35]: 75%
- inhibition (Staphylococcus aureus [36]): Active
